Experimental data taken from US9340577B2, “HLA binding motifs and peptides and their uses” (priority 1992, dated 2016).
Read-outs that look alike come from different tables or passages of the source. No end group written: not given here.

Key:
DRB5*0101 = DRB5*0101 (Homo sapiens, UniProt P01903+Q30154); experiment: biochemical
DR1 (DRB1*0101) = DR1 (DRB1*0101) (Homo sapiens, UniProt P01903+P01911, A100R/D57E/F55L/F60I/F76Y/I96L/L162R/M171V/P40L/Q125E/R42F/V115G/Y59C); experiment: biochemical; type: binding
DRB1*1101 = DRB1*1101 (Homo sapiens, UniProt P01903+P01911, A100R/A169T/A87E/I96F/K41T/L162R/M171V/P40S/Q125H/Q178H/Q39Y/Q99D/R42S/S66Y/T262R/V115G/W38E); experiment: biochemical
DRB1*0802 = DRB1*0802 (Homo sapiens, UniProt P01903+P01911, A100R/A103L/A169T/F76Y/H45Y/I96F/K41T/L162R/M171V/P40S/Q125H/Q178H/Q39Y/Q99D/R218S/R42G/S66Y/V115G/W38E); experiment: biochemical; type: binding
DR7 (DRB1*0701) = DR7 (DRB1*0701) (Homo sapiens, UniProt P01903+P01911, A100R/A102G/A103Q/D57E/D86V/E43K/F76Y/K127E/L162R/M171V/P40G/Q125H/Q99D/R33Q/R42Y/R54Q/S133A/S66F/T210M/V115G/Y107V/Y59L/Y89S); experiment: biochemical; type: binding
DRB1*0405 = DRB1*0405 (Homo sapiens, UniProt P01903+P01911, A100R/A169T/D86S/F76Y/I96L/K127E/L162R/M171V/N62H/P40V/Q125Y/R42H/S133A/S149N/S66Y/V115G/V209L/W38E); experiment: biochemical; type: binding
DR4w4 (DRB1*0401) = DR4w4 (DRB1*0401) (Homo sapiens, UniProt P01903+P01911, A100K/A169T/F76Y/I96L/K127E/L162R/M171V/N62H/P40V/Q125Y/R42H/S133A/S149N/S66Y/V115G/V209L/W38E); experiment: biochemical; type: binding
DRB1*0901 = DRB1*0901 (Homo sapiens, UniProt P01903+P01911, A100R/A103E/D57H/D86V/F55Y/F60I/F76Y/I96F/K127E/L162R/M171V/P40D/Q125H/Q99R/R33Q/R42F/S133A/S66N/T210M/V115G/W38K/Y107V/Y59G/Y89S); experiment: biochemical; type: binding
DRB1*1501 = DRB1*1501 (Homo sapiens, UniProt P01903+P01911); experiment: biochemical; type: binding
A2.1 HLA molecules = A2.1 HLA molecules (Homo sapiens, UniProt P04439, D140Y/D185E/D98H/E176V/E277Q/G131W/G231S/I119V/I121R/I166T/I218V/L300P/L318F/N151K/N90K/P208A/P217A/Q86G/Q94H/R138H/R169H/T345S); type: binding; parameters: A*0201 / A2.1 Binding / A2 Bind. / A2 / A2.1 (binding capacity): scale not given here
HLA-A1 (A*0101) = HLA-A1 (A*0101) (Homo sapiens, UniProt P04439, A114D/A174V/A182V/D101N/D185E/E176A/E190D/L180R/Q94H/R68K/S129P/T187R/V100A/V91M/W191G); experiment: biochemical; type: binding
DRB1*1302 = DRB1*1302 (Homo sapiens, UniProt P01903+P01911, A100E/A169T/K41T/L162R/M171V/P40S/Q125H/Q178H/Q39Y/Q99D/R42S/S66N/T262R/V115G/W38E/Y61H); experiment: biochemical; type: binding
DRB4*0101 = DRB4*0101 (Homo sapiens, UniProt P01903+P13762, G164S); experiment: biochemical; type: binding

Chain of DRB1*1302 (P01903 26-254 limits assumed, other chains not shown): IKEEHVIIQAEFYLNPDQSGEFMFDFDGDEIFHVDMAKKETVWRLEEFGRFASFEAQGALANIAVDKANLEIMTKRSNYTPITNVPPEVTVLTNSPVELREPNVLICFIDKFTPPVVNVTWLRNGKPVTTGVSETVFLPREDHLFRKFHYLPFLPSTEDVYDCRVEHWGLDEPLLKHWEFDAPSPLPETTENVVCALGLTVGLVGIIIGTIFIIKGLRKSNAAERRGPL
Chain of DRB1*1101 (P01903 26-254 limits assumed, other chains not shown): as above

Compound	IC50 (DR1 (DRB1*0101)) [µM]	IC50 (DRB1*0802) [µM]	IC50 (DRB1*0405) [µM]	IC50 (DR4w4 (DRB1*0401)) [µM]	IC50 (DRB1*0901) [µM]	IC50 (DRB1*1501) [µM]	A2 Bind. (A2.1 HLA molecules)	A1 (HLA-A1 (A*0101))	further results
NTEVETQQMVQQVES [Peptide 89.0059]	> 20	> 20	> 20	> 20	> 20	> 20			IC50 (DRB5*0101; Binding affinity DRB5 *0101): > 20 µM; IC50 (DRB1*1101; Binding affinity DRB1 *1101): > 20 µM; IC50 (DR7 (DRB1*0701)): > 20 µM
NCILLYGPANTGKSY [Peptide 89.0087]	0.11	13.5	7.34	0.28	> 20	0.066			IC50 (DRB5*0101; Binding affinity DRB5 *0101): 6.46 µM; IC50 (DRB1*1101; Binding affinity DRB1 *1101): 8.05 µM; IC50 (DR7 (DRB1*0701)): > 20 µM
IISLWDQSL							0.0179	0.0179	
LLYKLDIVSI							0.0245	0.0245	
WLWYIKIFI							0.0355	0.0355	
TVWGIKQLQA							0.0150	0.0150	
NTEVETQQMLQVEGR [Peptide 89.0002]	4.98	> 20	> 20		> 20	15.5			IC50 (DRB1*1302): 2.33 µM; IC50 (DRB5*0101; Binding affinity DRB5 *0101): > 20 µM; IC50 (DRB1*1101; Binding affinity DRB1 *1101): > 20 µM; IC50 (DR7 (DRB1*0701)): 1.85 µM
SLLNATDIAV							0.1050	0.1050	
RVIEVLQRA							0.1963	0.1963	
FLGAAGSTM							0.0190	0.0190	
PMCMMIEPPKLRSTA [Peptide 90.0034]	0.037	4.33	2.11	0.366	11.3	3.34			IC50 (DRB1*1302): 1.58 µM; IC50 (DRB5*0101; Binding affinity DRB5 *0101): 0.271 µM; IC50 (DRB1*1101; Binding affinity DRB1 *1101): 2.04 µM; IC50 (DR7 (DRB1*0701)): 0.369 µM
FLYGALLL							0.0345	0.0345	
TLQCKIKQII							0.0200	0.0200	
ALLYKLDIV							0.0362	0.0362	
IKFFQGSVISFVNSQ [Peptide 89.0136]	> 20	> 20	> 20		> 20	> 20			IC50 (DRB1*1302): 0.011 µM; IC50 (DRB5*0101): 5.5 µM; IC50 (DRB1*1101): > 20 µM; IC50 (DR7 (DRB1*0701)): > 20 µM
SLLTFMIAA							0.5300	0.5300	
LLGRRGWEV							0.0142	0.0142	
HMLQLTVWGI							0.0677	0.0677	
LLNATDIAV							0.0607	0.0607	
FLAIIWVDL							0.0233	0.0233	
TNCMLIQPPKLRSTA [89,0046]	0.017		3.22	1.86					
GLLECCARCLV							0.0515	0.0515	
ALTVVWLLV							0.0390	0.0390	

Compound	IC50 (DR1 (DRB1*0101)) [µM]	IC50 (DRB1*0802) [µM]	IC50 (DRB1*0405) [µM]	IC50 (DR4w4 (DRB1*0401)) [µM]	IC50 (DRB1*0901) [µM]	IC50 (DRB1*1501) [µM]	A2 Bind. (A2.1 HLA molecules)	A1 (HLA-A1 (A*0101))	further results
CSCC[C@H](NC(=O)[C@H](Cc1ccc(O)cc1)NC(=O)[C@H](Cc1ccc(O)cc1)NC(=O)[C@@H](NC(=O)[C@H](CO)NC(=O)[C@H](CC(=O)O)NC(=O)[C@H](Cc1c[nH]c2ccccc12)NC(=O)[C@H](C)NC(=O)[C@@H](N)C(C)C)C(C)C)C(=O)N[C@H](C(=O)N[C@@H](CC(=O)O)C(=O)N[C@@H](C)C(=O)NCC(=O)N[C@H](C(=O)N[C@@H](Cc1c[nH]c2ccccc12)C(=O)O)[C@@H](C)O)[C@@H](C)O [Peptide 1601.10]	7.86	> 20	7.43	1.66	0.587	> 20			IC50 (DRB1*1302): > 20 µM; IC50 (DRB5*0101; Binding affinity DRB5 *0101): > 20 µM; IC50 (DRB1*1101; Binding affinity DRB1 *1101): > 20 µM
LLVFACSAV							0.0107	0.0107	
FLYGALLLA							1.9000	1.9000	
RMYGVLPWI							0.1650	0.1650	
MVQVEEQQTTLSCNG [Peptide 89.0040]		> 20	> 20	0.34	> 20	> 20			IC50 (DRB1*1302): > 20 µM; IC50 (DRB5*0101; Binding affinity DRB5 *0101): > 20 µM; IC50 (DRB1*1101; Binding affinity DRB1 *1101): > 20 µM; IC50 (DR7 (DRB1*0701)): > 20 µM
YLVCGERGFFYTKPT [Peptide 9000.0079]		> 54.4	> 30.1	> 20.5					
PMAVSKAKACQAIEL [Peptide 90.0013]	0.089		> 20			16.6			IC50 (DRB1*1302): 0.535 µM; IC50 (DRB5*0101; Binding affinity DRB5 *0101): 12.8 µM; IC50 (DRB1*1101; Binding affinity DRB1 *1101): 1.55 µM; IC50 (DRB4*0101): 1.59 µM
ALFLGFLGAA							0.4950	0.4950	
FMIAATYNFAV							0.4950	0.4950	
FAGIVTKLPTANNTT [Peptide 89.0175]		1.56	5.87		> 20	2.55			IC50 (DRB1*1101; Binding affinity DRB1 *1101): 7.63 µM; IC50 (DR7 (DRB1*0701)): 1.28 µM; IC50 (DRB4*0101): 1.2 µM
LLNATDIAVA							0.0117	0.0117	
ALFLGFLGA							0.0945	0.0945	
RLTVSKLMSQLLNIP [89,0100]	10.5		> 20	> 20					
CC(C)C[C@H](NC(=O)[C@H](CC(C)C)NC(=O)[C@@H]1CCCN1C(=O)[C@@H](N)CC(N)=O)C(=O)NCC(=O)N[C@@H](C)C(=O)N[C@@H](C)C(=O)N[C@H](C(=O)N1CCC[C@H]1C(=O)N[C@H](C(=O)NCC(=O)N[C@@H](CC(N)=O)C(=O)N[C@@H](CC(N)=O)C(=O)N[C@@H](CCCCN)C(=O)N[C@@H](CCCNC(=N)N)C(=O)O)[C@@H](C)O)[C@@H](C)O [Peptide 89.0165]	0.655	> 20	8.25	1.24	9.38				IC50 (DRB1*1302): > 20 µM; IC50 (DRB5*0101; Binding affinity DRB5 *0101): > 20 µM; IC50 (DRB1*1101; Binding affinity DRB1 *1101): > 20 µM; IC50 (DR7 (DRB1*0701)): > 20 µM
NGWFYVEAVVEKKTG [Peptide 90.0029]	0.219	6.4	0.027	0.031	0.955	> 20			IC50 (DRB1*1302): 5.49 µM; IC50 (DRB1*1101; Binding affinity DRB1 *1101): 2.74 µM; IC50 (DR7 (DRB1*0701)): 0.307 µM
SLCADARMYGV							0.0140	0.0140	
PPLLITTNINPMLDA [Peptide 89.0139]	1.22	7.65	3.39	0.623	> 20	4.78			IC50 (DRB1*1302): > 20 µM; IC50 (DRB1*1101): 7.37 µM; IC50 (DR7 (DRB1*0701)): 7.54 µM
TIIVHLNESV							0.0350	0.0350	
DCKWGVLILALLRYK [Peptide 89.0026]		1.8	1.34	1.09	1	0.41			IC50 (DRB1*1302): 0.786 µM; IC50 (DRB5*0101; Binding affinity DRB5 *0101): 1.12 µM; IC50 (DRB1*1101; Binding affinity DRB1 *1101): 0.389 µM; IC50 (DR7 (DRB1*0701)): 7.36 µM
LLQYWSQEL							0.0265	0.0265	
NTEVETQQMVQVEEQ [Peptide 89.0039]	2.63		> 20	> 20	> 20	> 20			IC50 (DRB1*1302): > 20 µM; IC50 (DRB5*0101; Binding affinity DRB5 *0101): > 20 µM; IC50 (DRB1*1101; Binding affinity DRB1 *1101): > 20 µM; IC50 (DR7 (DRB1*0701)): > 20 µM
WCIIGMGVTPSVAEG [Peptide 89.0097]	> 20	> 20	> 20	> 20	> 20	> 20			IC50 (DRB1*1302): 2.09 µM; IC50 (DRB5*0101; Binding affinity DRB5 *0101): > 20 µM; IC50 (DRB1*1101; Binding affinity DRB1 *1101): > 20 µM; IC50 (DR7 (DRB1*0701)): 3.55 µM
